In assay [1] the test system is P. falc DD2. The assay is described as follows: Biological activity EC50, P. falc DD2. It is filed as cell-based. As to conditions: Plasmodium falciparum; Target (Cell Line): P. falc DD2.
Assay [2] concerns P. falc W2. The assay is described as follows: Biological activity EC50, P. falc W2. The class given is cell-based. As to conditions: Plasmodium falciparum.
The subject of assay [3] is HeLa. The assay is described as follows: Biological activity EC50, HeLa. It is filed as cell-based. As to conditions: Homo sapiens; Target (Cell Line): HeLa.
The test system of assay [4] is IMR90. The assay is described as follows: Biological activity EC50, IMR90. The class given is cell-based. As to conditions: Homo sapiens, IMR-90; Target (Cell Line): IMR90.
Assay [5] has as its system MB-MDA-231. The assay is described as follows: Biological activity EC50, MB-MDA-231. The class given is cell-based.
The subject of assay [6] is MCF-7. The assay is described as follows: Biological activity EC50, MCF-7. As to conditions: Homo sapiens, MCF7; Target (Cell Line): MCF-7. It is filed as cell-based.
Assay [7] concerns PC-3. The assay is described as follows: Biological activity EC50, PC-3. The class given is cell-based. The conditions noted are these: Homo sapiens; Target (Cell Line): PC-3.
Assay [8] concerns U87MG. The assay is described as follows: Biological activity EC50, U87MG. The class given is cell-based. The conditions noted are these: Homo sapiens, U-87 MG; Target (Cell Line): U87MG.
For assay [9], the system named is P. falc D10. The assay is described as follows: Biological activity EC50, P. falc D10. The class given is cell-based, P. falciparum. As to conditions: Target (Cell Line): P. falc D10.
Assay [10] deals with P. falc. The assay is described as follows: Biological activity EC50, P. falc (strain not given). It is filed as cell-based. The conditions noted are these: Plasmodium falciparum; Target (Cell Line): P. falc.
[11] abbreviates: Target (Cell Line): P. falc W2, read-out: Activity EC50.
Setting [12] is: Target (Cell Line): MB-MDA-231, read-out: Activity EC50.

SMILES strings stand for the structures. Where “and” joins values, the source holds several entries; their conditions need not be identical. Equal values may be shown once. Where a name gives a salt, the structure may show the parent alone. Read-outs that look alike come from different tables or passages of the source. A value given as a limit tells only on which side of the number the result lay.

`CN(C)c1cccc2c(S(=O)(=O)NC34CC5CC(C3)C3(OOC6(CCCCC6)O3)C(C5)C4)cccc12` (stereo not drawn) [Example 20, 5-(dimethylamino)-N-{dispiro[adamantane-2,2′-trioxolane-4′,1″-cyclohexane]-7-yl}naphthalene-1-sulfonamide] showed a concentration for a half-maximal effect (EC50) in assay [1] of 11.4 nM.

Turning to `COc1ccc(/C=C/C(=O)N2CC(CCl)c3c2cc(NC(=O)OC2CCCC4(C2)OCC2(O4)C4CC5CC(C4)CC2C5)c2ccccc32)cc1` (stereo not drawn) [Example 15, dispiro[adamantane-2,4′-[1,3]dioxolane-2′,1″-cyclohexane]-3″-yl N-[1-(chloromethyl)-3-[(2E)-3-(4-methoxyphenyl)prop-2-enoyl]-1H,2H,3H-benzo[e]indol-5-yl]carbamate], the concentration for a half-maximal effect (EC50) in [2] (setting [11]) is 41 nM; in assay [3], greater than 1000 nM; in [4] it was greater than 1000 nM.

As to `COc1ccc(-c2cnnn2-c2cc(OC)c(OC)c(OC)c2)cc1N` [Literature Compound B, reference compound], the EC50 in assay [2] (read-out: Activity EC50 (nM)) was greater than 1000 nM; in assay [5] (read-out: Activity EC50 (nM)) it was 10 nM; in [3] it was 11 nM; in assay [6] it was 10 nM; in assay [7], 9 nM.

In the case of `COc1ccc(-c2cnnn2-c2cc(OC)c(OC)c(OC)c2)cc1NC(=O)OC1CCCC2(COC3(O2)C2CC4CC(C2)CC3C4)C1` (stereo not drawn) [Example 13, dispiro[adamantane-2,2′-[1,3]dioxolane-4′,1″-cyclohexane]-3″-yl N-{2-methoxy-5-[1-(3,4,5-trimethoxyphenyl)-1H-1,2,3-triazol-5-yl]phenyl}carbamate], the concentration for a half-maximal effect (EC50) in assay [2] (setting [11]), in assay [5] (setting [12]), in assay [3], in assay [6], in [8] and in assay [7] was greater than 1000 nM each time.

In the case of `COc1ccc(C[C@H](N)C(=O)N[C@H]2[C@@H](O)[C@H](n3cnc4c(N(C)C)ncnc43)O[C@@H]2CO)cc1` [Puromycin dihydrochloride, reference compound], the concentration for a half-maximal effect (EC50) amounted to 569 nM in assay [5] (setting [12]), 783 nM in assay [3], 1700 nM in assay [4] and 25.3 nM in assay [1].

`COC1CCC[C@]2(C1)OOC1(O2)C2CC3CC(C2)CC1C3` (stereo partly drawn) [Example 25]: in [2] (setting [11]), the EC50 is 27 nM.

Turning to `COc1ccc(/C=C/C(=O)N2CC(CCl)c3c2cc(NC(=O)OC2CCCC4(C2)OOC2(O4)C4CC5CC(C4)CC2C5)c2ccccc32)cc1` (stereo not drawn) [Example 14, dispiro[adamantane-2,2′-[1,3,5]trioxolane-4′,1″-cyclohexane]-3″-yl N-[1-(chloromethyl)-3-[(2E)-3-(4-methoxyphenyl)prop-2-enoyl]-1H,2H,3H-benzo[e]indol-5-yl]carbamate], the EC50 in assay [2] (setting [11]) was 2.8 nM; in [3], 105 nM; in assay [4] it was 100 nM; in assay [8] it was 40 nM.

Take `COc1ccc(-c2cnnn2-c2cc(OC)c(OC)c(OC)c2)cc1NC(=O)OC1CCCC2(C1)OOC1(O2)C2CC3CC(C2)CC1C3` (stereo not drawn) [Example 11, dispiro[adamantane-2,2′-[1,3,5]trioxolane-4′,1″-cyclohexane]-3″-yl N-{2-methoxy-5-[1-(3,4,5-trimethoxyphenyl)-1H-1,2,3-triazol-5-yl]phenyl}carbamate]: the EC50 in assay [2] (setting [11]) is 34 nM; in [5] (setting [12]), 42 nM; in [3] it was 57 nM; in assay [6], 24 nM; in assay [7] it was 26 nM.

As for `CCCCC(C(=O)COc1c(F)c(F)cc(F)c1F)n1cc(C2(NC(=O)OC3CCCC4(C3)OOC3(O4)C4CC5CC(C4)CC3C5)CCCCC2)nn1` (stereo not drawn) [Example 9, dispiro[adamantane-2,2′-[1,3,5]trioxolane-4′,1″-cyclohexane]-3″-yl N-(1-{1-[2-oxo-1-(2,3,5,6-tetrafluorophenoxy)heptan-3-yl]-1H-1,2,3-triazol-4-yl}cyclohexyl)carbamate], the 50% effective concentration (EC50) in [9] (Plasmodium falciparum) was 29 nM; in [9] it was 15.7 nM and 23.3 nM.

`CC(C)(C)[C@H]1C[C@H](OC(=O)Nc2cc(Cl)ccc2Cl)CC2(C1)OOC1(O2)C2CC3CC(C2)CC1C3` (stereo partly drawn) [Example 3, (3″S,5″S)-5″-tert-butyldispiro[adamantane-2,2′-trioxolane-4′,1″-cyclohexane]-3″-yl N-(2,5-dichlorophenyl)carbamate]: a half-maximal response in [10] (EC50) required 65.7 nM.

On to `O=C(Oc1ccc2ccc(=O)oc2c1)OC1CCCC2(C1)OOC1(O2)C2CC3CC(C2)CC1C3` (stereo not drawn) [Example 17, dispiro[adamantane-2,2′-[1,3,5]trioxolane-4′,1″-cyclohexane]-3″-yl 2-oxo-2H-chromen-7-yl carbonate], for which the EC50 in assay [9] (Plasmodium falciparum) was found to be 25.3 nM.

Regarding `COc1ccc(-c2cnnn2-c2cc(OC)c(OC)c(OC)c2)cc1NC(=O)OC1CCCC2(C1)OCC1(O2)C2CC3CC(C2)CC1C3` (stereo not drawn) [Example 12, dispiro[adamantane-2,4′-[1,3]dioxolane-2′,1″-cyclohexane]-3″-yl N-{2-methoxy-S-[1-(3,4,5-trimethoxyphenyl)-1H-1,2,3-triazol-5-yl]phenyl}carbamate], the EC50 in assay [2] (setting [11]), in assay [3], in [6] and in assay [7] was greater than 1000 nM each time.

In the case of `O=C1CCCC2(C1)OOC1(O2)C2CC3CC(C2)CC1C3` (stereo not drawn) [Cmpd 2b, dispiro[adamantane-2,2′-[1,3,5]trioxolane-4′,1″-cyclohexane]-3″-one], in [10], a half-maximal effect (EC50) was put at 408 nM.

`O=C(Nc1cc(Cl)ccc1Cl)O[C@@H]1C[C@H](OC(=O)Nc2cc(Cl)ccc2Cl)CC2(C1)OOC1(O2)C2CC3CC(C2)CC1C3` (relative stereo) [Example 4, (3″R*,5″S*)-5″-{[(2,5-dichlorophenyl)carbamoyl]oxy}dispiro[adamantane-2,2′-[1,3,5]trioxolane-4′,1″-cyclohexane]-3″-yl N-(2,5-dichlorophenyl)carbamate] had an EC50 in assay [10] of 147 nM.

As for `CC(C)(N)CNC(=O)OC1CCCC2(C1)OOC1(O2)C2CC3CC(C2)CC1C3` (stereo not drawn) [Example 23, Dispiro[adamantane-2,2′-[1,3,5]trioxolane-4′,1″-cyclohexane]-3″-yl N-(2-amino-2-methylpropyl)carbamate], the concentration giving a half-maximal response (EC50) in [2] (setting [11]) was determined as 5 nM.

On to `COc1ccc(/C=C/C(=O)N2CC(CCl)c3c2cc(N)c2ccccc32)cc1` (stereo not drawn) [Literature Compound C, reference compound], for which the 50% effective concentration (EC50) in assay [2] (read-out: Activity EC50 (nM)) worked out at 0.45 nM; in assay [3], 11 nM; in assay [4], 3 nM; in assay [8], 5 nM.

On to `CCNC(=O)OC1CCCC2(C1)OOC1(O2)C2CC3CC(C2)CC1C3` (stereo not drawn) [Example 5, dispiro[adamantane-2,2′-[1,3,5]trioxolane-4′,1″-cyclohexane]-3″-yl N-ethylcarbamate], for which the EC50 in assay [2] (setting [11]) amounted to 5.9 nM.

`O=C(Nc1cc(Cl)ccc1Cl)OC1CCCC2(C1)OOC1(O2)C2CC3CC(C2)CC1C3` (stereo not drawn) [Example 1, dispiro[adamantane-2,2′-[1,3,5]trioxolane-4′,1″-cyclohexane]-3″-yl N-(2,5-dichlorophenyl)carbamate] displayed a concentration giving a half-maximal response (EC50) in [10] of 14.3 nM.

As to `O=C(OC1CCCC2(C1)OOC1(O2)C2CC3CC(C2)CC1C3)N1CCCCC1[C@@H](O)c1cc(C(F)(F)F)nc2c(C(F)(F)F)cccc12` (stereo partly drawn) [Example 6, dispiro[adamantane-2,2′-[1,3,5]trioxolane-4′,1″-cyclohexane]-3″-v 2-[(S)-[2,8-bis(trifluoromethyl)quinolin-4-yl](hydroxy)methyl]piperidine-1-carboxylate], in assay [2] (setting [11]), the concentration giving a half-maximal response (EC50) turned out to be 17.1 nM.

The compound `CCCCC(C(=O)COc1c(F)c(F)cc(F)c1F)n1cc(C2(N)CCCCC2)nn1` (stereo not drawn) [Literature Compound A, reference compound] yielded a concentration for a half-maximal effect (EC50) in [9] (Plasmodium falciparum) of 70 nM.

`CN(C)c1cccc2c(S(=O)(=O)N3CCC4(CC3)OOC3(O4)C4CC5CC(C4)CC3C5)cccc12` (stereo not drawn) [Example 21, 5-({dispiro[adamantane-2,2′-[1,3,5]trioxolane-4′,4″-piperidine]-1″-yl}sulfonyl)-N,N-dimethylnaphthalen-1-amine]: the EC50 in assay [1] came to 54.2 nM.

The compound `C=CC1(OC(=O)Nc2cc(Cl)ccc2Cl)CCCC2(C1)OOC1(O2)C2CC3CC(C2)CC1C3` (stereo not drawn) [Example 2, 3″-ethenyldispiro[adamantane-2,2′-[1,3,5]trioxolane-4′,1′-cyclohexane]-3″-yl N-(2,5-dichlorophenyl)carbamate] registered a concentration giving a half-maximal response (EC50) in [10] of 10.7 nM.

As for `COc1ccc(C[C@H](NC(=O)OC2CCCC3(C2)OOC2(O3)C3CC4CC(C3)CC2C4)C(=O)N[C@H]2[C@@H](O)[C@H](n3cnc4c(N(C)C)ncnc43)O[C@@H]2CO)cc1` (stereo partly drawn) [Example 22, dispiro[adamantane-2,2′-[1,3,5]trioxolane-4′,1″-cyclohexane]-3″-yl N-[(1S)-1-{[(2S,3S,4R,5R)-5-[6-(dimethylamino)-9H-purin-9-yl]-4-hydroxy-2-(hydroxymethyl)oxolan-3-yl]carbamoyl}-2-(4-methoxyphenyl)ethyl]carbamate], the EC50 in assay [5] (setting [12]) amounted to 5270 nM; in assay [3], 3210 nM; in assay [4], 6980 nM; in [1], 12.7 nM.

The EC50 is the concentration needed to bring the measured effect to its halfway point.

These data come from patent publication US11014955B2, “Cyclic peroxides as prodrugs for selective delivery of agents” (THE REGENTS OF THE UNIVERSITY OF CALIFORNIA, priority 2014, dated 2021).
